In data set [1] the target is T1, Poly [ADP-ribose] polymerase tankyrase-2 (Homo sapiens, UniProt Q9H2K2).
T1 sequence (Q9H2K2 whole entry): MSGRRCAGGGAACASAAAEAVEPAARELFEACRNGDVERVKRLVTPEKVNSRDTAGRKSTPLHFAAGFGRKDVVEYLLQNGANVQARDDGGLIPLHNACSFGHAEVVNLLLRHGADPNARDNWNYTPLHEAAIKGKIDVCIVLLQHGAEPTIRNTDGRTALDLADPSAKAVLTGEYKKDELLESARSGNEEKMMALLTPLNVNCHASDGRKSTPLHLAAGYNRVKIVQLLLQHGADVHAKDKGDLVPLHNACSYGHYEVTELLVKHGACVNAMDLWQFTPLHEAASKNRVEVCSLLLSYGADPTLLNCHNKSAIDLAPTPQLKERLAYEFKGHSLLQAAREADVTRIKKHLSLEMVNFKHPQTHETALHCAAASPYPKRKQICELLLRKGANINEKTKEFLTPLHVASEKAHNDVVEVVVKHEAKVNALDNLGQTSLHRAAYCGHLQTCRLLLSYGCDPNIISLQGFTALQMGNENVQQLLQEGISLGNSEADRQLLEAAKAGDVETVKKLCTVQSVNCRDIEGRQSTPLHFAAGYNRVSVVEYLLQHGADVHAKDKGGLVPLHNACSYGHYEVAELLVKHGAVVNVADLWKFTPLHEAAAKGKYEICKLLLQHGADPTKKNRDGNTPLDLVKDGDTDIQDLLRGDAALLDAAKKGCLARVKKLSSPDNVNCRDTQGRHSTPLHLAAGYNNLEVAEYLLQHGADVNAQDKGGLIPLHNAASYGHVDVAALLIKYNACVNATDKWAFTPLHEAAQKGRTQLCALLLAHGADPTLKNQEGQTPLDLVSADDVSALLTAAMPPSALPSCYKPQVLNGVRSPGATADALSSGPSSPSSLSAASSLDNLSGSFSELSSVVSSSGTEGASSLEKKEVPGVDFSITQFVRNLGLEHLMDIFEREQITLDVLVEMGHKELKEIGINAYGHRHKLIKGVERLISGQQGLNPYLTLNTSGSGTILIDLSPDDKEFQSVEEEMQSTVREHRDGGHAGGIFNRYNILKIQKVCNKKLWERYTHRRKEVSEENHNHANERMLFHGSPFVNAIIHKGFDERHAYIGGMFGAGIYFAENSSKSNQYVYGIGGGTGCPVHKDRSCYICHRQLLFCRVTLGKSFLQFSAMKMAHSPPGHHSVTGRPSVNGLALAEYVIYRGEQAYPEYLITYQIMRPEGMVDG
Description: Inhibition of human TNKS2 (956 to 1161 and 873 to 1161) using 500 nM NAD substrate after 20 mins incubation by fluorescence assay

Data set [2] deals with Protein mono-ADP-ribosyltransferase PARP4 (Homo sapiens, UniProt Q9UKK3). The experiment in a line: Inhibition of human ARTD4 (250 to 565) using 500 nM NAD substrate after 2.5 hrs incubation.
Sequence of Protein mono-ADP-ribosyltransferase PARP4 (Q9UKK3 whole entry): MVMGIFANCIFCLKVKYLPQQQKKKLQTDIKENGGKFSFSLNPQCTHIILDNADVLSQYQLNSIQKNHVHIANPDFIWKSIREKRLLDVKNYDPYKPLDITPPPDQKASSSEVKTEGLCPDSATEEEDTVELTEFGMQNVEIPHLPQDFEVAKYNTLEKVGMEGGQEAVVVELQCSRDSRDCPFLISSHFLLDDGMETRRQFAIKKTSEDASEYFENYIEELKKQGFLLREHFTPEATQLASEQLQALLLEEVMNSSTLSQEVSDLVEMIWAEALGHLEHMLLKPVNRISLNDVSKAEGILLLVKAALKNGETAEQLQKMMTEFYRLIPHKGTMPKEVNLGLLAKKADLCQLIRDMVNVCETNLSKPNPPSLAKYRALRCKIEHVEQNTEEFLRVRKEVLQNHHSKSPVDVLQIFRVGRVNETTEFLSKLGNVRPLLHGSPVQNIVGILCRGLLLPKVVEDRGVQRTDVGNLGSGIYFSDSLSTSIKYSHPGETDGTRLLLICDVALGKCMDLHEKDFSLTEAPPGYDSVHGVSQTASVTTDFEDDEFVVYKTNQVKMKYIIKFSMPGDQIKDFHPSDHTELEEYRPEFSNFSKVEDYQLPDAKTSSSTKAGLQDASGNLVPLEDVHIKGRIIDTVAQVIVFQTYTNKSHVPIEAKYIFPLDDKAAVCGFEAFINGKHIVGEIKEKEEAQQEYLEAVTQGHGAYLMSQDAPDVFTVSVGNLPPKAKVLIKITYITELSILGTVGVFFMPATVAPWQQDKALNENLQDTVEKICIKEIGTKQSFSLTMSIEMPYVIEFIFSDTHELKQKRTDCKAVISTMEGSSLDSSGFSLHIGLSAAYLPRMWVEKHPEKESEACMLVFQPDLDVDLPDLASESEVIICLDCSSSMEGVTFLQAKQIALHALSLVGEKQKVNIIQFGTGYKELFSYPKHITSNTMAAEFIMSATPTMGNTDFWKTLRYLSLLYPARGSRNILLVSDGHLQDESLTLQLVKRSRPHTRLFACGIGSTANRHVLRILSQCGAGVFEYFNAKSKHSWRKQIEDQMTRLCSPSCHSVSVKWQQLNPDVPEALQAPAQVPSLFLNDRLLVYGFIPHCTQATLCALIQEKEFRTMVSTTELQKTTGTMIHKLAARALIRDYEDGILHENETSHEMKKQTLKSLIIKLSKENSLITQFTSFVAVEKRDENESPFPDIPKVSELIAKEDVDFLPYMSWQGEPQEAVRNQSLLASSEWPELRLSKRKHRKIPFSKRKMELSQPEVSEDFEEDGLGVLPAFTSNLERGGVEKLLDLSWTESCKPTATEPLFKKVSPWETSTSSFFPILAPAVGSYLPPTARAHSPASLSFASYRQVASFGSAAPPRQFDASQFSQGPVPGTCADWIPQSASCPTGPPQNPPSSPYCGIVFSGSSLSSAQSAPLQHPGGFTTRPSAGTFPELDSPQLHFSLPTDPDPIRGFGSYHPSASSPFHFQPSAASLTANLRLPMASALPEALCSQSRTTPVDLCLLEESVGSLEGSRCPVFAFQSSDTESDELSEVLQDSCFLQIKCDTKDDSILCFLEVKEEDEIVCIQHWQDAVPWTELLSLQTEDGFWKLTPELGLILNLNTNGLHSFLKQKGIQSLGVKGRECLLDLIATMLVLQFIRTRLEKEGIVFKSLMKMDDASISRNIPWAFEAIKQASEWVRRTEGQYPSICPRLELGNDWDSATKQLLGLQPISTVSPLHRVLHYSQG
Data set [3] has as its target T2, Protein mono-ADP-ribosyltransferase PARP15 (Homo sapiens, UniProt Q460N3).
T2 sequence (Q460N3 whole entry): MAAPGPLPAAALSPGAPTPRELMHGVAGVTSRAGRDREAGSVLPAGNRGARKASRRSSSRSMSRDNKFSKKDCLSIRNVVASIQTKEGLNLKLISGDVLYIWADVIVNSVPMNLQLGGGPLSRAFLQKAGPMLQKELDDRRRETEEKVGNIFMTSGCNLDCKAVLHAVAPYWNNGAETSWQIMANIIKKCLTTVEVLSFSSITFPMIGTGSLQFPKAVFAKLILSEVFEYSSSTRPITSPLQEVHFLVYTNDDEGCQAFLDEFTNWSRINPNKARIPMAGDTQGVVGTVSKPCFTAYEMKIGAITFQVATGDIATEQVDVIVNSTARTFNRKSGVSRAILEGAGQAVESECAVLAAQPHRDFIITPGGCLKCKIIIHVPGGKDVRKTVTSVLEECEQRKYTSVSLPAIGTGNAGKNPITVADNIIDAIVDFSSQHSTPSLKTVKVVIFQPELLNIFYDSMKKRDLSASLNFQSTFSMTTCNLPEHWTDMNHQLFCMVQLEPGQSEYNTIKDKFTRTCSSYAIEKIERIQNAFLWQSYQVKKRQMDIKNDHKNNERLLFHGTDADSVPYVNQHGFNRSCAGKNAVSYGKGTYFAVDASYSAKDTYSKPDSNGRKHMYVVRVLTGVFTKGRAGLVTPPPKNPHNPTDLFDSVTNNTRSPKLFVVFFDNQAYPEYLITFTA
The experiment in a line: Inhibition of human ARTD7 (460 to 656) using 250 nM NAD substrate after 2 hrs incubation.

For data set [4], the target named is T3, Poly [ADP-ribose] polymerase tankyrase-1 (Homo sapiens, UniProt O95271).
T3 sequence (O95271 whole entry): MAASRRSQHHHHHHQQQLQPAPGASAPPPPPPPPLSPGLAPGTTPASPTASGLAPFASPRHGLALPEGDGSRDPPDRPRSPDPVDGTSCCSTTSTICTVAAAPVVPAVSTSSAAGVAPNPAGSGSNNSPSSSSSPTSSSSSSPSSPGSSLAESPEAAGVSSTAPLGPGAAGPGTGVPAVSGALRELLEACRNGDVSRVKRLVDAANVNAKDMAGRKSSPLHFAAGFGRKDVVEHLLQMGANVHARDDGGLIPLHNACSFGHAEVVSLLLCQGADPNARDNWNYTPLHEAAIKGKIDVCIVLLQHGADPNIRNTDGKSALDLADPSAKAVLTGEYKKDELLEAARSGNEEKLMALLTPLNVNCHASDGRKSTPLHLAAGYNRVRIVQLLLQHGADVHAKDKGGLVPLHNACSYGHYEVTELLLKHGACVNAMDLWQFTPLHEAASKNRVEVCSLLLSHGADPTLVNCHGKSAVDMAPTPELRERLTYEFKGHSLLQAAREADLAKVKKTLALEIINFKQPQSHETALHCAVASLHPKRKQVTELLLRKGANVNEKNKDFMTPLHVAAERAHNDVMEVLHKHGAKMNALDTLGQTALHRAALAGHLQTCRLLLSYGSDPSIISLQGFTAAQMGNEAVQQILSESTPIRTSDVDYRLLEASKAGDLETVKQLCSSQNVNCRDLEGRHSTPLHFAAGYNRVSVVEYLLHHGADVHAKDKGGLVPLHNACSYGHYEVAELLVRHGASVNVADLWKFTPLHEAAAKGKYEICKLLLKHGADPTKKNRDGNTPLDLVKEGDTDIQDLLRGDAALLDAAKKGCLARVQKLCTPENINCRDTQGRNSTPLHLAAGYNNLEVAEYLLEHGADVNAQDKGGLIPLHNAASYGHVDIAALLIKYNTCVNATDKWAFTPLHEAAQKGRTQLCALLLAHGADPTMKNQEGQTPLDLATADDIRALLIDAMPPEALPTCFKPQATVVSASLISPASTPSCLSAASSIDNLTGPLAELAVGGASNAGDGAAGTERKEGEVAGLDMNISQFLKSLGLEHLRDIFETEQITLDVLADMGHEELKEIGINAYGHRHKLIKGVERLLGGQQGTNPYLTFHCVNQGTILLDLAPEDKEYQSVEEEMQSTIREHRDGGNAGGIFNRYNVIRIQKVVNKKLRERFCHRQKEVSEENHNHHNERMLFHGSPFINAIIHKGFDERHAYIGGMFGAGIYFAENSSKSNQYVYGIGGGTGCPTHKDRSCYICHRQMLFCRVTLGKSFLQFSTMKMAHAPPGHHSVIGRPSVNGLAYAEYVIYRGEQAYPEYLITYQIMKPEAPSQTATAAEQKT
In words: Inhibition of human TNKS1 (1030 to 1317) using NAD substrate after 20 mins incubation by fluorescence assay.

Data set [5] deals with HEK293. In words: Cytotoxicity against HEK293 cells assessed as cell viability at 2.5 to 10 uM. The class given is cell-based. The settings on record: human, hek293, 10 µM.
Data set [6] addresses T4, Protein mono-ADP-ribosyltransferase PARP10 (Homo sapiens, UniProt Q53GL7).
T4 sequence (Q53GL7 whole entry): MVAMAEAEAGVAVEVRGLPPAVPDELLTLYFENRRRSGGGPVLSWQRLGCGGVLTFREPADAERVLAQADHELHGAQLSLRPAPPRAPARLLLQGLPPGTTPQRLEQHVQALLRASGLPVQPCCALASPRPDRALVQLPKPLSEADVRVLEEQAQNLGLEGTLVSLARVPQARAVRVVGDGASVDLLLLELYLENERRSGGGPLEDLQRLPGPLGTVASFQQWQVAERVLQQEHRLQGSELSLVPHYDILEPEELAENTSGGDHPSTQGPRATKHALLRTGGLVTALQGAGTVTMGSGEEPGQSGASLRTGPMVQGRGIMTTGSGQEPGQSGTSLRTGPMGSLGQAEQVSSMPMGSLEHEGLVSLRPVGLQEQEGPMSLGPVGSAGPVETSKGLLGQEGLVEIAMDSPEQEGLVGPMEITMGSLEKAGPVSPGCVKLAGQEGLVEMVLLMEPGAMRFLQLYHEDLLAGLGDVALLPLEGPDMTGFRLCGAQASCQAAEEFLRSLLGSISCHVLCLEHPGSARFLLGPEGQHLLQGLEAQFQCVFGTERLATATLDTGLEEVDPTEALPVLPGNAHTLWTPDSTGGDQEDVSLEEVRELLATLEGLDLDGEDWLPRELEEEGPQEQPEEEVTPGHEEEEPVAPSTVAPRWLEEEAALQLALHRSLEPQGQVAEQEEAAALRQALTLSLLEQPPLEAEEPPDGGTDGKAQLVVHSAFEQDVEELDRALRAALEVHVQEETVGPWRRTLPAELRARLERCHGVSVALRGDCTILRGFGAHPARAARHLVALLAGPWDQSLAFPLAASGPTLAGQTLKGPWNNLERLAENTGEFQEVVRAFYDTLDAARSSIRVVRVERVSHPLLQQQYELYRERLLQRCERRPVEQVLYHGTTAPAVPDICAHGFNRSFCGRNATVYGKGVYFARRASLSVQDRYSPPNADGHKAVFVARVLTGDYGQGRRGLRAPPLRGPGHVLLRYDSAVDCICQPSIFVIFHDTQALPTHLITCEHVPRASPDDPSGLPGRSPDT
In words: Inhibition of human ARTD10 (809 to 1017) using 500 nM NAD substrate after 2.5 hrs incubation.

In data set [7] the target is Poly [ADP-ribose] polymerase 2 (Homo sapiens, UniProt Q9UGN5). In words: Inhibition of full-length human ARTD2 using 500 nM NAD substrate after 3 hrs incubation.
Sequence of Poly [ADP-ribose] polymerase 2 (Q9UGN5 whole entry): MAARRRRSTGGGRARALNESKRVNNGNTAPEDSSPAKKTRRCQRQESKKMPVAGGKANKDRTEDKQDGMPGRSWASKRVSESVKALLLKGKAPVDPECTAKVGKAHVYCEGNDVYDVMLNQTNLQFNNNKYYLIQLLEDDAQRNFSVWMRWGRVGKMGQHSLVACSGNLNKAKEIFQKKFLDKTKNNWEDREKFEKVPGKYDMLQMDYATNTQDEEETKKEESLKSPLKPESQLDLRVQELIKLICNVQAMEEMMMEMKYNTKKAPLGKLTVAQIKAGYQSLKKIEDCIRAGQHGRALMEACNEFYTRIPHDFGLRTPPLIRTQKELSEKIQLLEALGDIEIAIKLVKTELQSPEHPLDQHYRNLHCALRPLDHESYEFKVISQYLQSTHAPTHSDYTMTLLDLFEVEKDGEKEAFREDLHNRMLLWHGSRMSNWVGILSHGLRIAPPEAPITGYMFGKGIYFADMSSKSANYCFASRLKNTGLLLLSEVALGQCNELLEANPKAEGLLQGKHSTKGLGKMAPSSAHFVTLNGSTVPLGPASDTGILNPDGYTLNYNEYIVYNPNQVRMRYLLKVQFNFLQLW

Values joined by “and” are separate entries in the source; they are usually repeats but may differ in a detail not shown here. Equal entries are not always repeated.

In general, IC50 refers to the concentration needed to halve the response being measured. The low end stands for greater potency, the high end for weaker potency. Turning to `CN1c2ncccc2C(=O)NC1c1ccc(NC(=O)C2CCOCC2)cc1` (stereo unspecified), in data set [1], the IC50 is 6.6 µM.
On the same count and under the same terms, next, `O=c1[nH]c(N2CCNCC2)nc2c1CCO2`: above 100 µM; `CCc1c(C)nc(N2CCN(c3ccccc3F)CC2)nc1O`: 0.72 µM and 0.724 µM.
`O=c1[nH]c(N2CCN(Cc3ccncc3)CC2)nc2c1CCCC2`: the IC50 in data set [2] was 33 µM; in data set [3], above 10 µM; in data set [4], 0.37 µM; in data set [6], 5.4 µM; in data set [7], 4.2 µM. The Activity entry in data set [5] was “Non-toxic”.
For the molecule `O=C1NC(c2ccc(Cl)cc2)Nc2ccccc21` (stereo unspecified), the IC50 in data set [1] was 0.41 µM and 0.417 µM.
Still for that read-out and setting: next, `O=C1NC(c2ccccc2Cl)Nc2ccccc21` (stereo unspecified): 31.2 µM.
For the molecule `O=C1NC(c2cccc(OCc3ccccc3)c2)Nc2ncccc21` (stereo unspecified), in data set [1], the 50% inhibitory concentration (IC50) came to 230 µM.
In the case of `CN1CCN(c2nc3c(c(=O)[nH]2)CCCC3)CC1`, the concentration for half-maximal inhibition (IC50) was 17 µM in data set [2]; above 10 µM in data set [3]; 6.3 µM in data set [4]; above 10 µM in data set [6]; 3.6 µM in data set [7]. For the same molecule, in data set [5], the Activity result was “Non-toxic”.
The molecule `O=C1NC(c2ccccc2Cl)Nc2ncccc21` (stereo unspecified) showed a 50% inhibitory concentration (IC50) in data set [1] of 140 µM.
Still for that read-out and setting: next, `COc1ccc(C2NC(=O)c3ccccc3N2)cc1` (stereo unspecified): 0.99 µM and 1 µM; `O=C1NC(c2cccc(OCc3ccccc3)c2)Nc2ccccc21` (stereo unspecified): 7.3 µM and 7.24 µM.

Values taken from ChEMBL document CHEMBL3593161, “Discovery of potent and selective nonplanar tankyrase inhibiting nicotinamide mimics” (Bioorg Med Chem, 2015).
